Results reported in US6770596B1, “Fused tricyclic compounds, process for their preparation, and herbicidal compositions containing them” (Ishihara Sangyo Kaisha Ltd., priority 2002, dated 2004).

Legend:
Type in all cases: in vivo
[1] = test system: redroot pigweed (Amaranthus retroflexus, AMR); assay: Pre-emerge test, redroot pigweed; details: 250 g ai/ha, 14 days after application, rating scale 0-100 (0 no damage, 100 complete death)
How it was run: (§1)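 Read-out is a visual 0–100 phytotoxicity rating taken 14 days after treatment, where 100 means all plants dead. Compounds were applied pre-emergence in acetone by track sprayer at rates from 8 to 1000 g ai/ha onto pots sown the previous day.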

[2] = test system: velvetleaf (Abutilon theophrasti, ABT); assay: Pre-emerge test, velvetleaf; details: 250 g ai/ha, 14 days after application, rating scale 0-100 (0 no damage, 100 complete death)
How it was run: as §1

[3] = test system: sicklepod (Cassia obtusifolia, CAO); assay: Pre-emerge test, sicklepod; details: 250 g ai/ha, 14 days after application, rating scale 0-100 (0 no damage, 100 complete death)
How it was run: as §1

[4] = test system: ivyleaf morningglory (Ipomoea hederacea, IPH); assay: Pre-emerge test, ivyleaf morningglory; details: 250 g ai/ha, 14 days after application, rating scale 0-100 (0 no damage, 100 complete death)
How it was run: as §1

[5] = test system: lambsquarters (Chenopodium album, CHA); assay: Pre-emerge test, lambsquarters; details: 250 g ai/ha, 14 days after application, rating scale 0-100 (0 no damage, 100 complete death)
How it was run: as §1

[6] = test system: common ragweed (Ambrosia artemisiifolia L., AML); assay: Pre-emerge test, common ragweed; details: 250 g ai/ha, 14 days after application, rating scale 0-100 (0 no damage, 100 complete death)
How it was run: as §1

[7] = test system: cocklebur (Xanthium strumariunt, XAS); assay: Pre-emerge test, cocklebur; details: 250 g ai/ha, 14 days after application, rating scale 0-100 (0 no damage, 100 complete death)
How it was run: as §1

[8] = test system: green foxtail (Setaria viridis, SEV); assay: Pre-emerge test, green foxtail; details: 250 g ai/ha, 14 days after application, rating scale 0-100 (0 no damage, 100 complete death)
How it was run: as §1

[9] = test system: barnyardgrass (Echinachloa crus-galli, ECC); assay: Pre-emerge test, barnyardgrass; details: 250 g ai/ha, 14 days after application, rating scale 0-100 (0 no damage, 100 complete death)
How it was run: as §1

[10] = test system: johnsongrass (Sorghum halepense, SOH); assay: Pre-emerge test, johnsongrass; details: 250 g ai/ha, 14 days after application, rating scale 0-100 (0 no damage, 100 complete death)
How it was run: as §1

[11] = test system: large crabgrass (Digitaria sanguinalis, DIS); assay: Pre-emerge test, large crabgrass; details: 250 g ai/ha, 14 days after application, rating scale 0-100 (0 no damage, 100 complete death)
How it was run: as §1

[12] = test system: field corn (Zea mays L., var. Dekalb 535, CORN); assay: Pre-emerge test, crop damage field corn; details: pre-emerge, 250 g ai/ha, 14 days after application, rating scale 0-100 (0 no damage, 100 complete death)
How it was run: (§2)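 Pots (10 cm, sandy loam mix) were seeded one day ahead of spraying. Test materials, dissolved in acetone, went on at 8–1000 g ai/ha in a 187 l/ha spray volume. Damage was scored 14 days later from 0 (none) to 100 (total kill).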

[13] = test system: soybean (Glycine max L., var. Pella 86, SOY); assay: Pre-emerge test, crop damage soybean; details: pre-emerge, 250 g ai/ha, 14 days after application, rating scale 0-100 (0 no damage, 100 complete death)
How it was run: as §2

[14] = test system: upland rice (Oryza sp., var.Tebonnet, RICE); assay: Pre-emerge test, crop damage upland rice; details: pre-emerge, 250 g ai/ha, 14 days after application, rating scale 0-100 (0 no damage, 100 complete death)
How it was run: as §2

[15] = test system: wheat (Triticum aestivum); assay: Pre-emerge test, crop damage wheat; details: pre-emerge, 250 g ai/ha, 14 days after application, rating scale 0-100 (0 no damage, 100 complete death)
How it was run: as §2

[16] = test system: redroot pigweed (Amaranthus retroflexus, AMR); assay: Post-emerge test, redroot pigweed; details: 250 g ai/ha, 14 days after application, rating scale 0-100 (0 no damage, 100 complete death)
How it was run: (§3)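 Each score is a 0-100 visual rating made 14 days post-spray, with 100 meaning all plants dead. Application was post-emergence at the 2-3 leaf stage, 8-1000 g ai/ha in acetone plus 0.25% v/v surfactant.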

[17] = test system: velvetleaf (Abutilon theophrasti, ABT); assay: Post-emerge test, velvetleaf; details: 250 g ai/ha, 14 days after application, rating scale 0-100 (0 no damage, 100 complete death)
How it was run: as §3

[18] = test system: sicklepod (Cassia obtusifolia, CAO); assay: Post-emerge test, sicklepod; details: 250 g ai/ha, 14 days after application, rating scale 0-100 (0 no damage, 100 complete death)
How it was run: as §3

[19] = test system: ivyleaf morningglory (Ipomoea hederacea, IPH); assay: Post-emerge test, ivyleaf morningglory; details: 250 g ai/ha, 14 days after application, rating scale 0-100 (0 no damage, 100 complete death)
How it was run: as §3

[20] = test system: lambsquarters (Chenopodium album, CHA); assay: Post-emerge test, lambsquarters; details: 250 g ai/ha, 14 days after application, rating scale 0-100 (0 no damage, 100 complete death)
How it was run: as §3

[21] = test system: common ragweed (Ambrosia artemisiifolia L., AML); assay: Post-emerge test, common ragweed; details: 250 g ai/ha, 14 days after application, rating scale 0-100 (0 no damage, 100 complete death)
How it was run: as §3

[22] = test system: cocklebur (Xanthium strumariunt, XAS); assay: Post-emerge test, cocklebur; details: 250 g ai/ha, 14 days after application, rating scale 0-100 (0 no damage, 100 complete death)
How it was run: as §3

[23] = test system: green foxtail (Setaria viridis, SEV); assay: Post-emerge test, green foxtail; details: 250 g ai/ha, 14 days after application, rating scale 0-100 (0 no damage, 100 complete death)
How it was run: as §3

[24] = test system: barnyardgrass (Echinachloa crus-galli, ECC); assay: Post-emerge test, barnyardgrass; details: 250 g ai/ha, 14 days after application, rating scale 0-100 (0 no damage, 100 complete death)
How it was run: as §3

[25] = test system: johnsongrass (Sorghum halepense, SOH); assay: Post-emerge test, johnsongrass; details: 250 g ai/ha, 14 days after application, rating scale 0-100 (0 no damage, 100 complete death)
How it was run: as §3

[26] = test system: large crabgrass (Digitaria sanguinalis, DIS); assay: Post-emerge test, large crabgrass; details: 250 g ai/ha, 14 days after application, rating scale 0-100 (0 no damage, 100 complete death)
How it was run: as §3

[27] = test system: field corn (Zea mays L., var. Dekalb 535, CORN); assay: Post-emerge test, crop damage field corn; details: post-emerge, 250 g ai/ha, 14 days after application, rating scale 0-100 (0 no damage, 100 complete death)
How it was run: as §3

[28] = test system: soybean (Glycine max L., var. Pella 86, SOY); assay: Post-emerge test, crop damage soybean; details: post-emerge, 250 g ai/ha, 14 days after application, rating scale 0-100 (0 no damage, 100 complete death)
How it was run: as §3

[29] = test system: upland rice (Oryza sp., var.Tebonnet, RICE); assay: Post-emerge test, crop damage upland rice; details: post-emerge, 250 g ai/ha, 14 days after application, rating scale 0-100 (0 no damage, 100 complete death)
How it was run: as §3

[30] = test system: wheat (Triticum aestivum); assay: Post-emerge test, crop damage wheat; details: post-emerge, 250 g ai/ha, 14 days after application, rating scale 0-100 (0 no damage, 100 complete death)
How it was run: as §3

| SMILES | Pre-emerge Herbicidal Activity AMR (phytotoxicity rating) [1] | Pre-emerge Herbicidal Activity ABT (phytotoxicity rating) [2] | Pre-emerge Herbicidal Activity CAO (phytotoxicity rating) [3] | Pre-emerge Herbicidal Activity IPH (phytotoxicity rating) [4] | Pre-emerge Herbicidal Activity CHA (phytotoxicity rating) [5] | Pre-emerge Herbicidal Activity AML (phytotoxicity rating) [6] | Pre-emerge Herbicidal Activity XAS (phytotoxicity rating) [7] | Pre-emerge Herbicidal Activity SEV (phytotoxicity rating) [8] | Pre-emerge Herbicidal Activity ECC (phytotoxicity rating) [9] | Pre-emerge Herbicidal Activity SOH (phytotoxicity rating) [10] | Pre-emerge Herbicidal Activity DIS (phytotoxicity rating) [11] | Pre-emerge crop damage CORN (phytotoxicity rating) [12] | Pre-emerge crop damage SOY (phytotoxicity rating) [13] | Pre-emerge crop damage RICE (phytotoxicity rating) [14] | Pre-emerge crop damage WHEAT (phytotoxicity rating) [15] | Post-emerge Herbicidal Activity AMR (phytotoxicity rating) [16] | Post-emerge Herbicidal Activity ABT (phytotoxicity rating) [17] | Post-emerge Herbicidal Activity CAO (phytotoxicity rating) [18] | Post-emerge Herbicidal Activity IPH (phytotoxicity rating) [19] | Post-emerge Herbicidal Activity CHA (phytotoxicity rating) [20] | other results |
| --- | --- | --- | --- | --- | --- | --- | --- | --- | --- | --- | --- | --- | --- | --- | --- | --- | --- | --- | --- | --- | --- |
| Cc1nn(-c2c(F)cc3c4c2NC(=O)C(C)N4C(=O)CO3)c(=O)n1C(F)F (stereo not drawn) [1-74] | 98 | 100 | 75 | 95 | 99 | 80 | 98 | 100 | 98 | 99 | 99 | 100 | 95 | 99 | 98 | 60 | 55 | 0 | 0 | 65 | Post-emerge Herbicidal Activity AML (phytotoxicity rating) [21]: 55; Post-emerge Herbicidal Activity XAS (phytotoxicity rating) [22]: 10; Post-emerge Herbicidal Activity SEV (phytotoxicity rating) [23]: 65; Post-emerge Herbicidal Activity ECC (phytotoxicity rating) [24]: 0; Post-emerge Herbicidal Activity SOH (phytotoxicity rating) [25]: 0; Post-emerge Herbicidal Activity DIS (phytotoxicity rating) [26]: 0; Post-emerge crop damage CORN (phytotoxicity rating) [27]: 0; Post-emerge crop damage SOY (phytotoxicity rating) [28]: 0; Post-emerge crop damage RICE (phytotoxicity rating) [29]: 0; Post-emerge crop damage WHEAT (phytotoxicity rating) [30]: 0 |
| CCC1C(=O)Nc2c3c(cc(F)c2-n2nc(C)n(C(F)F)c2=O)OCC(=O)N31 (stereo not drawn) [1-75] | 50 | 100 | 65 | 99 | 100 | 85 | 85 | 99 | 100 | 100 | 100 | 100 | 98 | 99 | 10 | 0 | 90 | 0 | 80 | 80 | Post-emerge Herbicidal Activity AML (phytotoxicity rating) [21]: 45; Post-emerge Herbicidal Activity XAS (phytotoxicity rating) [22]: 20; Post-emerge Herbicidal Activity SEV (phytotoxicity rating) [23]: 0; Post-emerge Herbicidal Activity ECC (phytotoxicity rating) [24]: 0; Post-emerge Herbicidal Activity SOH (phytotoxicity rating) [25]: 0; Post-emerge Herbicidal Activity DIS (phytotoxicity rating) [26]: 0; Post-emerge crop damage CORN (phytotoxicity rating) [27]: 0; Post-emerge crop damage SOY (phytotoxicity rating) [28]: 55; Post-emerge crop damage RICE (phytotoxicity rating) [29]: 40; Post-emerge crop damage WHEAT (phytotoxicity rating) [30]: 0 |
| O=C1CN2C(=O)COc3cc(F)c(-n4nnn(CCCF)c4=O)c(c32)N1 [1-76] | 65 | 55 | 45 | 25 | 98 | 55 | 60 | 0 | 35 | 35 | 25 | 5 | 0 | 10 | 0 | 0 | 0 | 0 | 0 | 0 | Post-emerge Herbicidal Activity AML (phytotoxicity rating) [21]: 0; Post-emerge Herbicidal Activity XAS (phytotoxicity rating) [22]: 0; Post-emerge Herbicidal Activity SEV (phytotoxicity rating) [23]: 0; Post-emerge Herbicidal Activity ECC (phytotoxicity rating) [24]: 0; Post-emerge Herbicidal Activity SOH (phytotoxicity rating) [25]: 0; Post-emerge Herbicidal Activity DIS (phytotoxicity rating) [26]: 0; Post-emerge crop damage CORN (phytotoxicity rating) [27]: 0; Post-emerge crop damage SOY (phytotoxicity rating) [28]: 0; Post-emerge crop damage RICE (phytotoxicity rating) [29]: 0; Post-emerge crop damage WHEAT (phytotoxicity rating) [30]: 0 |
| CC(C)C1C(=O)Nc2c3c(cc(F)c2-n2c(=O)cc(C(F)(F)F)n(C)c2=O)OCC(=O)N31 (stereo not drawn) [1-77] | 100 | 100 | 90 | 100 | 100 | 100 | 98 | 100 | 100 | 99 | 100 | 100 | 100 | 99 | 99 | 25 | 50 | 0 | 75 | 90 | Post-emerge Herbicidal Activity AML (phytotoxicity rating) [21]: 0; Post-emerge Herbicidal Activity XAS (phytotoxicity rating) [22]: 50; Post-emerge Herbicidal Activity SEV (phytotoxicity rating) [23]: 0; Post-emerge Herbicidal Activity ECC (phytotoxicity rating) [24]: 0; Post-emerge Herbicidal Activity SOH (phytotoxicity rating) [25]: 0; Post-emerge Herbicidal Activity DIS (phytotoxicity rating) [26]: 0; Post-emerge crop damage CORN (phytotoxicity rating) [27]: 0; Post-emerge crop damage SOY (phytotoxicity rating) [28]: 10; Post-emerge crop damage RICE (phytotoxicity rating) [29]: 35; Post-emerge crop damage WHEAT (phytotoxicity rating) [30]: 0 |
